Results: ChEMBL document CHEMBL5506003, “Design and biological evaluation of dual tubulin/HDAC inhibitors based on millepachine for treatment of prostate cancer” (Eur J Med Chem, 2024)
The source made the active and inactive calls. No cut-off for these calls is given here.

Key:
HUVEC = experiment: Anti-angiogenesis activity against HUVECs assessed as reduction in capillary like tubules at 0.1 to 1.6 uM incubated for 6 hrs by matrigel based microscopic analysis; type: functional, cell-based; conditions: Homo sapiens, dose 0.1-1.6 µM
U-251 = experiment: Cytotoxicity against human U-251 cells incubated for 72 hrs by MTT assay; conditions: U-251, 72 h
PC-3 [1] = experiment: Induction of mitochondrial membrane potential loss in human PC-3 cells assessed as decrease in JC-1 aggregate level by measuring red fluorescence intensity at 0.08 uM incubated for 24 hrs by JC-1 staining based flow cytometry analysis (reference value: 93.5%); type: functional; set-up: scale not given: the % may be the effect or the level left
PC-3 [2] = experiment: Induction of apoptosis in human PC-3 cells assessed as downregulation of Bim expression at 0.08 to 0.32 uM by Western blotting analysis; type: functional, cell-based; conditions: dose 0.08-0.32 µM
PC-3 [3] = experiment: Induction of mitochondrial membrane potential loss in human PC-3 cells assessed as increase in monomer JC-1 level by measuring green fluorescence intensity at 0.32 uM incubated for 24 hrs by JC-1 staining based flow cytometry analysis (reference value: 6.44%); type: functional
[4] = target: T1, Protein deacetylase HDAC6 (Homo sapiens, UniProt Q9UBN7); experiment: Inhibition of HDAC6 in human HeLa nuclear extracts incubated for 30 mins by fluorescence based assay; type: cell-free
T1 sequence (Q9UBN7 whole entry): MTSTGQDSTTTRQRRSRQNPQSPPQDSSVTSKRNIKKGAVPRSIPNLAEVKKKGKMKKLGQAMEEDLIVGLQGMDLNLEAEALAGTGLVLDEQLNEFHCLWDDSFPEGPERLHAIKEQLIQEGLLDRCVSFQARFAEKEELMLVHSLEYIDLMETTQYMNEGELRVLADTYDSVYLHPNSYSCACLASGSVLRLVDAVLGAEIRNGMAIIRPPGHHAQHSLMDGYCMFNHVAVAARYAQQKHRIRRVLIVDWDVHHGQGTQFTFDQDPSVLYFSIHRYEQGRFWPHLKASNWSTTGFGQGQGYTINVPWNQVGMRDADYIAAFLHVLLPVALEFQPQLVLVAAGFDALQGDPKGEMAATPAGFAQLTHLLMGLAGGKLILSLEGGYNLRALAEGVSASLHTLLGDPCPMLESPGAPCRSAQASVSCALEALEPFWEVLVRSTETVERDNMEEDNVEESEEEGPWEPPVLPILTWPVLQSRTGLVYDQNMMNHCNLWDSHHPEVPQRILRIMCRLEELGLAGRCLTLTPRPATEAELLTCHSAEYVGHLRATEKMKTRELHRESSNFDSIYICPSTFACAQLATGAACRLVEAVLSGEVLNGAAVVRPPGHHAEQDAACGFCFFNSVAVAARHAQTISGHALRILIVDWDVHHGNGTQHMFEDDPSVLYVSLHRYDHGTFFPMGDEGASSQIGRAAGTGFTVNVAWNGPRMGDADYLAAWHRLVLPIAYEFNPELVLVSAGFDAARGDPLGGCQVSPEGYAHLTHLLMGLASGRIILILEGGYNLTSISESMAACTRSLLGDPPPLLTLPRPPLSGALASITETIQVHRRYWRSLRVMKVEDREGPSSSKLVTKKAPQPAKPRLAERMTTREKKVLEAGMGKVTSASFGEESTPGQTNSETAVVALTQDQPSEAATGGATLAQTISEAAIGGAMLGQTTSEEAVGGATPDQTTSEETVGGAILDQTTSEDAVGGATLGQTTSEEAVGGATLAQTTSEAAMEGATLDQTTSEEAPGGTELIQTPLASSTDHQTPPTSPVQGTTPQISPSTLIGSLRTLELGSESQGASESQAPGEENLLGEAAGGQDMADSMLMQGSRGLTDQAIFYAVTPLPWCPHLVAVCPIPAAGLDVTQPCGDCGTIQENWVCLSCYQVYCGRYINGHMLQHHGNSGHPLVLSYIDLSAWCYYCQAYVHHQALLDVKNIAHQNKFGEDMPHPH

A549 [5] = experiment: Inhibition of cell migration in human A549 cells at 0.4 to 1.6 uM incubated for 24 hrs by crystal violet staining based transwell method; type: functional; conditions: dose 0.4-1.6 µM
A549 [6] = experiment: Inhibition of cell migration in human A549 cells incubated for 24 hrs by scratch wound healing method; type: functional, cell-based; conditions: dose 0.4-1.6 µM
PC-3 [7] = experiment: Induction of mitochondrial membrane potential loss in human PC-3 cells assessed as decrease in JC-1 aggregate level by measuring red fluorescence intensity at 0.32 uM incubated for 24 hrs by JC-1 staining based flow cytometry analysis (reference value: 93.5%); type: functional; set-up: scale not given: the % may be the effect or the level left
PC-3 [8] = experiment: Induction of mitochondrial membrane potential loss in human PC-3 cells assessed as decrease in JC-1 aggregate level by measuring red fluorescence intensity at 0.16 uM incubated for 24 hrs by JC-1 staining based flow cytometry analysis (reference value: 93.5%); type: functional; set-up: scale not given: the % may be the effect or the level left
PC-3 [9] = experiment: Induction of mitochondrial membrane potential loss in human PC-3 cells assessed as increase in monomer JC-1 level by measuring green fluorescence intensity at 0.16 uM incubated for 24 hrs by JC-1 staining based flow cytometry analysis (reference value: 6.44%); type: functional
PC-3 [10] = experiment: Induction of cell cycle arrest in human PC-3 cells assessed as G2/M phase cells at 0.16 uM incubated for 24 hrs by PI staining based flow cytometry analysis (reference value: 12.83%); type: functional
[11] = target: T2, Protein deacetylase HDAC6 (Homo sapiens) (UniProt Q9UBN7); experiment: Inhibition of HDAC6 in human PC-3 cells assessed as increase in acetylated alpha-tubulin level incubated for 24 hrs by Western blotting assay; type: cell-based; conditions: dose 0.08-0.32 µM
T2 sequence (whole entry): T1 sequence (Q9UBN7 whole entry)

PC-3 [12] = experiment: Induction of cell cycle arrest in human PC-3 cells assessed as G1 phase cells at 0.08 uM incubated for 24 hrs by PI staining based flow cytometry analysis (reference value: 56.17%); type: functional
PC-3 [13] = experiment: Induction of cell cycle arrest in human PC-3 cells assessed as G2/M phase cells at 0.32 uM incubated for 24 hrs by PI staining based flow cytometry analysis (reference value: 12.83%); type: functional
PC-3 [14] = experiment: Induction of cell cycle arrest in human PC-3 cells assessed as S phase cells at 0.08 uM incubated for 24 hrs by PI staining based flow cytometry analysis (reference value: 31.7%); type: functional
PC-3 [15] = experiment: Induction of apoptosis in human PC-3 cells assessed as necrotic cells at 0.16 uM incubated for 24 hrs by Annexin V-FITC and PI staining based flow cytometry (reference value: 0.13%); type: functional
PC-3 [16] = experiment: Induction of apoptosis in human PC-3 cells assessed as viable cells at 0.08 uM incubated for 24 hrs by Annexin V-FITC and PI staining based flow cytometry (reference value: 97.5%); type: functional; conditions: read-out: Activity
PC-3 [17] = experiment: Induction of cell cycle arrest in human PC-3 cells assessed as G1 phase cells at 0.16 uM incubated for 24 hrs by PI staining based flow cytometry analysis (reference value: 56.17%); type: functional
Tubulin (Homo sapiens) = Tubulin (Homo sapiens) (UniProt P68371+Q9H4B7+P0DPH7+P68366+Q13509+Q71U36+P04350+Q3ZCM7+P07437+P68363+Q9BQE3+Q6PEY2+Q13885+Q9BVA1+Q9BUF5); experiment: (§1) Inhibition of tubulin polymerization (unknown origin) measured after 60 mins by fluorescence based assay; type: protein-complex assay
Tubulin = experiment: as §1; type: protein-complex assay, Homo sapiens

COc1ccc(/C=C/C(=O)c2ccc(OC)c3c2OC(C)(C)C=C3)cc1NCC(=O)NO
Activity (HUVEC): Active
IC50 (U-251): 150 nM
Activity (PC-3 [1]): 88.4%
Activity (PC-3 [2]): Active
Activity (PC-3 [3]): 38.8%
IC50 [4]: 620 nM
inhibition (A549 [5]): Active
inhibition (A549 [6]): Dose-Dependent Effect
Activity (PC-3 [7]): 58.9%
Activity (PC-3 [8]): 77.9%
Activity (PC-3 [9]): 20.7%
Activity (PC-3 [10]): 50.56%
inhibition [11]: Dose-Dependent Effect
Activity (PC-3 [12]): 34.64%
Activity (PC-3 [13]): 82.04%
Activity (PC-3 [14]): 39.9%
Activity (PC-3 [15]): 0.47%
viability at 0.08 µM (PC-3 [16]): 94.8%
Activity (PC-3 [17]): 18.7%
inhibition (Tubulin (Homo sapiens)): Dose-Dependent Effect
IC50 (Tubulin): 4820 nM
